Where “and” joins values, the source holds several entries; their conditions need not be identical. Identical values can stand only once. Like-named read-outs stand apart in the source and are kept apart here. One block for each molecule: values may come before it.
What was measured:
[1] = system: leukemia cell lines; assay: NCI-60 five-dose screen, leukemia sub-panel; assay type: cell-based; conditions: Homo sapiens, read-out: GI50 values in the range
[2] = system: panel of 60 human cancer cell lines; assay: NCI-60 five-dose screen, whole panel; assay type: cell-based
[3] = system: primary AML cell specimen AML03; assay: Primary AML cell assay; assay type: cell-based; conditions: Homo sapiens, 24 h
[4] = system: primary AML cell specimens; assay: Primary AML cell assay, specimens taken together; assay type: cell-based; conditions: Homo sapiens
[5] = system: rat 9L-SF gliosarcoma cells; assay: Colony formation assay with 9L-SF cells
[6] = system: M9-ENL1 cells; assay: M9-ENL1 cell assay; assay type: cell-based; conditions: M9-ENL1, 24 h

Structure (SMILES): C=C1C(=O)O[C@H]2[C@H]1CC/C(COC(=O)NCCCCNC(=O)OC/C1=C/CC[C@@]3(C)O[C@H]3[C@H]3OC(=O)C(=C)[C@@H]3CC1)=C\CC[C@@]1(C)O[C@@H]21 [7b, bis-E-(((1aR,7aS,10aS,10bS)-1a-Methyl-8-methylene-9-oxo-1a,2,3,6,7,7a,8,9,10a,10b-decahydrooxireno[2',3':9,10]cyclodeca[1,2-b]furan-5-yl)methyl)butane-1,4-diyldicarbamate]
- GI50 [1]: 250 to 780 nM

Structure (SMILES): C=C1C(=O)O[C@H]2[C@H]1CC/C(COC(=O)NCCCCCNC(=O)OC/C1=C/CC[C@@]3(C)O[C@H]3[C@H]3OC(=O)C(=C)[C@@H]3CC1)=C\CC[C@@]1(C)O[C@@H]21 [7c, bis-E-(((1aR,7aS,10aS,10bS)-1a-Methyl-8-methylene-9-oxo-1a,2,3,6,7,7a,8,9,10a,10b-decahydrooxireno[2',3':9,10]cyclodeca[1,2-b]furan-5-yl)methyl)pentane-1,5-diyldicarbamate]
- GI50 [1]: 250 to 780 nM

Structure (SMILES): C=C1C(=O)O[C@H]2[C@H]1CC/C(COC(=O)NCCCCCCCCNC(=O)OC/C1=C/CC[C@@]3(C)O[C@H]3[C@H]3OC(=O)C(=C)[C@@H]3CC1)=C\CC[C@@]1(C)O[C@@H]21 [7f, bis-E-(((1aR,7aS,10aS,10bS)-1a-Methyl-8-methylene-9-oxo-1a,2,3,6,7,7a,8,9,10a,10b-decahydrooxireno[2',3':9,10]cyclodeca[1,2-b]furan-5-yl)methyl)octane-1,8-diyldicarbamate]
- GI50 ([2]; 60 cell, read-out: GI50 values in the nanomolar range, against most of the solid tumor cell lines in the 60 cell panel): 160 to 999 nM
- GI50 ([2]; read-out: GI50 values, against more than 50% of the cancer cell lines in the panel): < 500 nM
- GI50 [1]: 250 to 780 nM

- EC50 [3]: 1200 nM
Structure (SMILES): C=C1C(=O)O[C@H]2[C@H]1CC/C(COC(=O)OCCCCCOC(=O)OC/C1=C/CC[C@@]3(C)O[C@H]3[C@H]3OC(=O)C(=C)[C@@H]3CC1)=C\CC[C@@]1(C)O[C@@H]21 [7j, bis-E-(((1aR,7aS,10aS,10bS)-1a-Methyl-8-methylene-9-oxo-1a,2,3,6,7,7a,8,9,10a,10b-decahydrooxireno[2',3':9,10]cyclodeca[1,2-b]furan-5-yl)methyl)pentane-1,5-diyldicarbonate]

- EC50 [3]: 5000 nM
- EC50 ([4]; AML01, read-out: EC50 (range)): 2500 to 8000 nM
- EC50 ([4]; read-out: EC50 (range)): 2500 to 16000 nM
Structure (SMILES): C=C1C(=O)O[C@@H]2[C@H]3O[C@]3(C)CC/C=C(\C)CC[C@@H]12 [compound 1, parthenolide]

Structure (SMILES): C=C1C(=O)O[C@H]2[C@H]1CC/C(COC(=O)OC/C1=C/CC[C@@]3(C)O[C@H]3[C@H]3OC(=O)C(=C)[C@@H]3CC1)=C\CC[C@@]1(C)O[C@@H]21 [compound 8, bis-E-(((1aR,7aS,10aS,10bS)-1a-Methyl-8-methylene-9-oxo-1a,2,3,6,7,7a,8,9,10a,10b-decahydrooxireno[2',3':9,10]cyclodeca[1,2-b]furan-5-yl)methyl) carbonate]
- fold more cytotoxic than DMAPT ([5]; clonogenic survival, 48 h, at a concentration of 10 μM): 1 × 10^6 fold and 1.08 × 10^6 fold
- fold more toxic than compound 7f ([5]; colony formation assay, at 10 μM): 3,564 fold
- EC50 [6]: 500 nM

— publication PMC4959447 (Journal of medicinal chemistry, 2015)
